# Assay results taken from patent US8367838B2, “Amines or amino alcohols as GLYT1 inhibitors” (Hoffmann-La Roche Inc., priority 2009, dated 2013).
# Where a name gives a salt, the structure may show the parent alone.
# Molecular target: T1, mGlyT-1b (Mus musculus, UniProt P28571)
# T1 construct: host or cells: Flp-in-CHO
# T1 sequence (P28571 1-651 isoform P28571-2): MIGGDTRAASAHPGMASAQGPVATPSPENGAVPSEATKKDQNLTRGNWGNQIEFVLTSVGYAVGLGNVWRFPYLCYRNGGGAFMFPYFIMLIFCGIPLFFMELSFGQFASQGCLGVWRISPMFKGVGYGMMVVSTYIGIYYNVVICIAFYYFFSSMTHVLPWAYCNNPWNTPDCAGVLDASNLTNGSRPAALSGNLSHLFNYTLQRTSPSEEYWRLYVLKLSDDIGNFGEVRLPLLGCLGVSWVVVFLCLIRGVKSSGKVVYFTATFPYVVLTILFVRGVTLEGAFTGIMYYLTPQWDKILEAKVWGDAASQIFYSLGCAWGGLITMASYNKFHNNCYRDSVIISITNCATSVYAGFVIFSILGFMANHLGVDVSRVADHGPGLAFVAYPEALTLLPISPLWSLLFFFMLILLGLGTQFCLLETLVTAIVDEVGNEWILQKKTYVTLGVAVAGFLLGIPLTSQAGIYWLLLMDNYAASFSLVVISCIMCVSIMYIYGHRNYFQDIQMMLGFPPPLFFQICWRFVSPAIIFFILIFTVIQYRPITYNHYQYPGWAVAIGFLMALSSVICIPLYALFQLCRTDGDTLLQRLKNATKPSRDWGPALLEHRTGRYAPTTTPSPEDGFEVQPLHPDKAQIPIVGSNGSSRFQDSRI
# Assay: Glycine uptake inhibition assay (mGlyT-1b), [3H]-glycine uptake in transfected Flp-in-CHO cells
# Assay type: cell-based
# Conditions: Flp-in-CHO cells transfected with mGlyT-1b cDNA; [3H]-glycine 60 nM and 25 μM non-radioactive glycine; 20 min preincubation at 22° C.; read-out: IC50 (μM) at GlyT-1; Ic50 (hglyt1b)
# Protocol: Nutrient mixture F-12 (Gibco Life-technologies), fetal bovine serum (FBS) 5%, (Gibco life technologies), Penicillin/Streptomycin 1% (Gibco life technologies), Hygromycin 0.6 mg/ml (Gibco life technologies), Glutamine 1 mM Gibco life technologies).
# 150 mM NaCl, 10 mM Hepes-Tris, pH 7.4, 1 mM CaCl2, 2.5 mM KCl, 2.5 mM MgSO4, 10 mM (+) D-glucose. Flp-in™-CHO (Invitrogen Cat n° R758-07) cells stably transfected with mGlyT1b cDNA.
# Glycine Uptake Inhibition Assay (mGlyT-1b)
# On day 1 mammalian cells, (Flp-in™-CHO), transfected with mGlyT-1b cDNA, were plated at the density of 40,000 cells/well in complete F-12 medium, without hygromycin in 96-well culture plates. On day 2, the medium was aspirated and the cells were washed twice with uptake buffer (UB). The cells were then incubated for 20 min at 22° C. with either (i) no potential competitor, (ii) 10 mM non-radioactive glycine, (iii) a concentration of a potential inhibitor. A range of concentrations of the potential inhibitor was used to generate data for calculating the concentration of inhibitor resulting in 50% of the effect (e.g. IC50, the concentration of the competitor inhibiting glycine uptake of 50%). A solution was then immediately added containing [^3H]-glycine 60 nM (11-16 Ci/mmol) and 25 μM non-radioactive glycine. The plates were incubated with gentle shaking and the reaction was stopped by aspiration of the mixture and washing (three times) with ice-cold UB. The cells were lysed with scintillation liquid, shaken 3 hours and the radioactivity in the cells was counted using a scintillation counter.
row,IC50,SMILES
1,0.025 µM,"CS(=O)(=O)c1cccc(-c2ccc([C@@H](O)[C@@H](N)c3ccc(Cl)c(Cl)c3)c(F)c2)c1 (racemic) [Example 1, rac-erythro-[2-Amino-2-(3,4-dichloro-phenyl)-1-(3-fluoro-3′-methanesulfonyl-biphenyl-4-yl)-ethanol trifluoroacetate]"
2,0.063 µM,"Cc1cc(-c2cncc(F)c2)ccc1[C@@H](O)[C@@H](N)c1ccc(Cl)c(Cl)c1 (racemic) [Example 2, rac-erythro-[2-Amino-2-(3,4-dichloro-phenyl)-1-[4-(5-fluoro-pyridin-3-yl)-2-methyl-phenyl]]-ethanol dihydrochloride]"
3,0.186 µM,"COc1cc([C@@H](O)[C@@H](N)c2ccc(Cl)c(Cl)c2)ccc1-c1cncc(F)c1 (racemic) [Example 3, rac-erythro-[2-Amino-2-(3,4-dichloro-phenyl)-1-[4-(5-fluoro-pyridin-3-yl)-3-methoxy-phenyl]-ethanoldihydrochloride]"
4,0.346 µM,"COc1cc(-c2cncc(F)c2)ccc1[C@@H](O)[C@@H](N)c1ccc(Cl)c(Cl)c1 (racemic) [Example 4, rac-erythro-[2-Amino-2-(3,4-dichloro-phenyl)-1-[4-(5-fluoro-pyridin-3-yl)-2-methoxy-phenyl]-ethanoldihydrochloride]"
5,0.615 µM,"CS(=O)(=O)c1cccc(-c2cccc([C@@H](O)[C@@H](N)c3ccc(Cl)c(Cl)c3)c2)c1 (racemic) [Example 5, rac-erythro-[2-Amino-2-(3,4-dichloro-phenyl)-1-(3′-methanesulfonyl-biphenyl-3-yl)-ethanol trifluoroacetate]"
6,0.041 µM,"CS(=O)(=O)c1cccc(-c2ccc([C@@H](O)[C@@H](N)c3ccc(Cl)c(Cl)c3)cc2)c1 (racemic) [Example 7, rac-erythro-[2-Amino-2-(3,4-dichloro-phenyl)-1-(3′-methanesulfonyl-biphenyl-4-yl)-ethanol trifluoroacetate]"
7,0.097 µM,"CS(=O)(=O)c1cccc(-c2ccc([C@@H](O)[C@@H](N)c3ccc(Cl)c(Cl)c3)nc2)c1 (racemic) [Example 11, rac-erythro-[2-Amino-2-(3,4-dichloro-phenyl)-1-[5-(3-methanesulfonyl-phenyl)-pyridin-2-yl]-ethanol bistrifluoroacetate]"
8,0.148 µM,"N[C@@H](c1ccc(Cl)c(Cl)c1)[C@H](O)c1ccc(-c2cncc(F)c2)cn1 (racemic) [Example 12, rac-erythro-[2-Amino-2-(3,4-dichloro-phenyl)-1-(5′-fluoro-[3,3′]bipyridinyl-6-yl)-ethanoltrihydrochloride]"
9,0.113 µM,"COc1cccc(-c2cnc([C@@H](O)[C@@H](N)c3ccc(Cl)c(Cl)c3)c(F)c2)c1 (racemic) [Example 13, rac-erythro-[2-Amino-2-(3,4-dichloro-phenyl)-1-[3-fluoro-5-(3-methoxy-phenyl)-pyridin-2-yl]-ethanoldihydrochloride]"
10,0.275 µM,"Cc1cc([C@@H](O)[C@@H](N)c2ccc(Cl)c(Cl)c2)ccc1-c1cncc(F)c1 (racemic) [Example 14, rac-erythro-[2-Amino-2-(3,4-dichloro-phenyl)-1-[4-(5-fluoro-pyridin-3-yl)-3-methyl-phenyl]-ethanolbis-trifluoroacetate]"
11,0.021 µM,"Cc1nc(OC2CCOC2)ccc1[C@@H](O)[C@@H](N)c1ccc(Cl)c(Cl)c1 (mixture of isomers) [Example 15, rac-erythro-[rac-2-Amino-2-(3,4-dichloro-phenyl)-1-[2-methyl-6-(tetrahydro-furan-3-yloxy)-pyridin-3-yl]-ethanoldihydrochloride]"
12,0.043 µM,"Cc1nc(OC2CCOCC2)ccc1[C@@H](O)[C@@H](N)c1ccc(Cl)c(Cl)c1 (racemic) [Example 17, rac-erythro-[2-Amino-2-(3,4-dichloro-phenyl)-1-[2-methyl-6-(tetrahydro-pyran-4-yloxy)-pyridin-3-yl]-ethanoldihydrochloride]"
13,0.082 µM,"N[C@@H](c1ccc(Cl)c(Cl)c1)[C@H](O)c1ccc(OC2CCOC2)nc1 (mixture of isomers) [Example 19, rac-erythro-[rac-2-Amino-2-(3,4-dichloro-phenyl)-1-[6-(tetrahydro-furan-3-yloxy)-pyridin-3-yl]-ethanoldihydrochloride]"
14,0.091 µM,"Cc1cc(OC2CCOCC2)ncc1[C@@H](O)[C@@H](N)c1ccc(Cl)c(Cl)c1 (racemic) [Example 21, rac-erythro-[2-Amino-2-(3,4-dichloro-phenyl)-1-[4-methyl-6-(tetrahydro-pyran-4-yloxy)-pyridin-3-yl]-ethanoldihydrochloride]"
15,0.131 µM,"N[C@@H](c1ccc(Cl)c(Cl)c1)[C@H](O)c1ccc(OC2CCOCC2)nc1 (racemic) [Example 22, rac-erythro-[2-Amino-2-(3,4-dichloro-phenyl)-1-[6-(tetrahydro-pyran-4-yloxy)-pyridin-3-yl]-ethanoldihydrochloride]"
16,0.16 µM,"N[C@@H](c1ccc(Cl)c(Cl)c1)[C@H](O)c1ccc(OC2CCOC2)cn1 (mixture of isomers) [Example 23, rac-erythro-[rac-2-Amino-2-(3,4-dichloro-phenyl)-1-[5-(tetrahydro-furan-3-yloxy)-pyridin-2-yl]-ethanoldihydrochloride]"
17,0.205 µM,"Cc1cc(OC2CCOC2)ncc1[C@@H](O)[C@@H](N)c1ccc(Cl)c(Cl)c1 (mixture of isomers) [Example 24, rac-erythro-[(rac)-2-Amino-2-(3,4-dichloro-phenyl)-1-[4-methyl-6-(tetrahydro-furan-3-yloxy)-pyridin-3-yl]-ethanoldihydrochloride]"
18,0.216 µM,"N[C@@H](c1ccc(Cl)c(Cl)c1)[C@H](O)c1ccc(OC2CCOCC2)cn1 (racemic) [Example 25, rac-erythro-[2-Amino-2-(3,4-dichloro-phenyl)-1-[5-(tetrahydro-pyran-4-yloxy)-pyridin-2-yl]-ethanoldihydrochloride]"

row,SMILES,IC50
1,"N[C@@H](c1ccc(Cl)cc1)[C@H](O)c1ccc(OC2CCCOC2)cc1 (mixture of isomers) [Example 9, rac-erythro-[2-Amino-2-(4-chloro-phenyl)-1-[4-(tetrahydro-pyran-3-yloxy)-phenyl]-ethanol]",0.138 µM
2,"CC(C)Oc1ccc([C@@H](O)[C@@H](N)c2ccc(Cl)cc2)cc1 (racemic) [Example 10, rac-erythro-[2-Amino-2-(4-chloro-phenyl)-1-(4-isopropoxy-phenyl)-ethanol hydrochloride]",0.188 µM
3,"N[C@@H](c1ccc(Cl)c(Cl)c1)[C@H](O)c1ccc(OC2CCOC2)cc1F (mixture of isomers) [Example 16, rac-erythro-[rac-2-Amino-2-(3,4-dichloro-phenyl)-1-[2-fluoro-4-(tetrahydro-furan-3-yloxy)-phenyl]-ethanol hydrochloride]",0.039 µM
4,"N[C@@H](c1ccc(Cl)c(Cl)c1)[C@H](O)c1ccc(OC2CCOCC2)c(F)c1 (racemic) [Example 18, rac-erythro-[2-Amino-2-(3,4-dichloro-phenyl)-1-[3-fluoro-4-(tetrahydro-pyran-4-yloxy)-phenyl]-ethanol hydrochloride]",0.049 µM
5,"N[C@@H](c1ccc(Cl)c(Cl)c1)[C@H](O)c1cc(F)c(OC2CCOCC2)c(F)c1 (racemic) [Example 20, rac-erythro-[2-Amino-2-(3,4-dichloro-phenyl)-1-[3,5-difluoro-4-(tetrahydro-pyran-4-yloxy)-phenyl]-ethanol hydrochloride]",0.09 µM
